Literature values as cited in US11169101B2, “Oligosaccharide compositions and methods of use thereof” (Kaleido Biosciences, Inc., priority 2018, dated 2021).

Conditions: administered in combination with lactulose

Question: With `CO[C@H]1/C=C/O[C@@]2(C)Oc3c(C)c(O)c4c(O)c(c5c(nc6cc(C)ccn65)c4c3C2=O)NC(=O)/C(C)=C\C=C\[C@H](C)[C@H](O)[C@@H](C)[C@@H](O)[C@@H](C)[C@H](OC(C)=O)[C@@H]1C` [rifaximin] as the compound, how does the “reduction of episodes of OHE” value read?
Answer: approximately 50%
